Data as given in US11401278B2, “Macrocyclic indole derivatives” (The Broad Institute, Inc., priority 2017, dated 2022).
Where “and” joins values, the source holds several entries; their conditions need not be identical. Equal entries are not always repeated. Structures can show the parent of a compound that is named as a salt. Where two headings read alike, the source gives them in different places.

What was measured:
AMO-1 = assay: Antiproliferation assay (Assay 7), AMO-1; assay type: cell-based; conditions: CellTiter-Glo, 72 hours, several values per example, read-out: Antiproli AMO-1 [M] IC50
Method in brief: (§1)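 Cells were treated with compound for 72 hours at 37° C in a humidified incubator, and viability was then read by CellTiter-Glo luminescence. A parallel reference plate was read at time zero (day 0) in the same way for baseline determination.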

HMC-1-8 = assay: Antiproliferation assay (Assay 7), HMC-1-8; assay type: cell-based; conditions: CellTiter-Glo, several values per example, read-out: Antiproli HMC-1-8 [M] IC50
Method in brief: as §1

MCL-1 = MCL-1 (Homo sapiens (Human), UniProt Q07820, K194A/K197A/R201A); assay: Protein-protein interaction assay MCL-1/Noxa BH3 peptide (MCL-1 assay, TR-FRET); assay type: binding; conditions: MBP-MCL-1 / Noxa BH3 peptide, median
Method in brief: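 MBP-fused MCL-1 (aa 173-329, 1 nM) was pre-incubated with compound for 10 min at 22° C, then biotinylated Noxa BH3 peptide (1 nM) was added with anti-MBP-Eu cryptate and streptavidin-XL665. Incubation was 1 h at 22° C, then overnight at 4° C, in Tris pH 7 buffer. The 665/620 nm ratio over 11 concentrations (0.1 nM-20 μM) gave IC50 by 4-parameter fit.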

SUDHL5 [1] = assay: Induction of caspase-3/7 activity (Assay 4), SUDHL5; assay type: cell-based; conditions: caspase-3/7 induction, 3 hours, median
Method in brief: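 Caspase-3/7 activity measured by Caspase-Glo 3/7 luminescence in DLBCL cells after 3 h compound treatment at 37 °C. Medium-only background subtracted. EC50 fitted with C0 fixed at 1 and top set to the reference compound's plateau/max induction.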

SUDHL5 [2] = assay: Antiproliferation assay (Assay 7), SUDHL5; assay type: cell-based; conditions: CellTiter-Glo, 72 hours, median, read-out: Antiproli SUDHL5 [M] (median) IC50
Method in brief: as §1

SUDHL5 [3] = assay: Induction of cytotoxicity (Assay 6), SUDHL5; conditions: read-out: Cytotox SUDHL5 [M] (median) IC50, CellTiter-Glo, 5 hours, SUDHL5
Description: Assay 6 Induction of Cytotoxicity Upon Treatment of Cells with Selected Compounds
Therefore, cytotoxicity assays were run in parallel in SUDHL5 and SUDHL10 cells.
The different cell lines were plated in culture medium (RPMI 1640 [GIBCO #22400-089] supplemented with 10% Fetal Bovine Serum) at a density of 3,300 cells in 30 μl/well in a sterile, solid black, flat bottom, polystyrene, TC-treated 384-well microplate (Corning #3571) using Multidrop Combi Reagent Dispenser. As a control, medium without cells was also added to the plate. Cells were incubated in a humidified incubator at 37° C. overnight. On the next day, the cells were treated with compounds (stock solution, 10 mM in DMSO) using the HP D300 Digital Dispenser in a concentration range of 3.3×10e-5 M (33 μM) to 5×10e-9 M (5 nM) in a single-dot curve with at least 16 dilutions and a DMSO concentration of 0.33%. Rim wells were excluded. The cells were incubated for 5 hours in a humidified incubator at 37° C. After this incubation, 30 μl of CellTiter-Glo® Luminescent Cell Viability reagent (Promega, G7573) was added to each well using the Multidrop Combi Reagent Dispenser, followed by 15 minutes incubation on a shaker at room temperature. Finally, luminescence was read at 0.1 ms, with a gain of 3000 using the PHERAstar FS microplate reader (BMG Labtech).

SUDHL10 = assay: Induction of cytotoxicity (Assay 6), SUDHL10; conditions: read-out: Cytotox SUDHL10 [M] (median) IC50, CellTiter-Glo, 5 hours, SUDHL10

MCL-1, sequence (Q07820 whole entry K194A/K197A/R201A, looked up, the tested form may be a part): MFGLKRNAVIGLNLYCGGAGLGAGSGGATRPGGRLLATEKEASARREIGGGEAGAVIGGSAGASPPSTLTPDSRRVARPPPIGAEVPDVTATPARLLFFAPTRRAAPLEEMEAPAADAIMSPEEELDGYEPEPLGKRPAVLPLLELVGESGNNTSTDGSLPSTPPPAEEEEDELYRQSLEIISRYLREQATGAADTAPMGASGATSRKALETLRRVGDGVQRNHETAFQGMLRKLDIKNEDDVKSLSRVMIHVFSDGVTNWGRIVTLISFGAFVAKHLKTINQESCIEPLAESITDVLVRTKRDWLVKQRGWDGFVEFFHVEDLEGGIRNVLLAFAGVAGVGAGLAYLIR

| SMILES | IC50 (AMO-1) | IC50 (HMC-1-8; 72 hours) | IC50 (MCL-1) [nM] | EC50 (SUDHL5 [1]) [nM] | IC50 (SUDHL5 [2]) [M] | IC50 (SUDHL5 [3]) [M] | IC50 (SUDHL10) [M] | IC50 (HMC-1-8; 72 h) [M] |
| --- | --- | --- | --- | --- | --- | --- | --- | --- |
| CCc1c2c(nn1C)C(CCC1CCOCC1)N(C)S(=O)(=O)CCCn1c(C(=O)O)c(CCCOc3cccc4cc(F)ccc34)c3ccc(Cl)c-2c31 (racemic) [Example 60, (rac)-4-chloro-3-ethyl-7-{3-[(6-fluoro-1-naphthyl)oxy]propyl}-2,14-dimethyl-15-[2-(tetrahydro-2H-pyran-4-yl)ethyl]-11,12,14,15-tetrahydro-2H,10H-pyrazolo[3′,4′:4,5][1,2,8]thiadiazacycloundecino[6,7,8-hi]indole-8-carboxylic acid 13,13-dioxide (Racemate 1)] | 4.4e-08 M | 1.9e-07 M | 2.4 | 18 | 1.8e-08 | 2.8e-08 | 3.9e-08 | – |
| Cc1c2c(nn1C)C(CCN1CCOCC1)N(C)S(=O)(=O)CCCn1c(C(=O)O)c(CCCOc3cccc4cc(F)ccc34)c3ccc(Cl)c-2c31 (racemic) [Example 65, (rac)-4-chloro-7-{3-[(6-fluoronaphthalen-1-yl)oxy]propyl}-2,3,14-trimethyl-15-(rac)-[2-(morpholin-4-yl)ethyl]-13,13-dioxo-10,11,12,13,14,15-hexahydro-2H-13lambda^6-pyrazolo[3′,4′:4,5][1,2,8]thiadiazacycloundecino[6,7,8-hi]indole-8-carboxylic acid (Mixture of Stereoisomers)] | 7.1e-08 M | – | 0.94 | 47 | 6e-08 | 5.8e-08 | 1e-07 | 1.5e-06 |
| CCc1c2c(nn1C)CN(C)S(=O)(=O)CCCn1c(C(=O)O)c(CCCOc3cccc4cc(F)ccc34)c3ccc(Cl)c-2c31 (single isomer, unassigned; enantiomer 1) [Example 36, (+)-4-chloro-3-ethyl-7-{3-[(6-fluoronaphthalen-1-yl)oxy]propyl}-2,14-dimethyl-13,13-dioxo-10,11,12,13,14,15-hexahydro-2H-13lambda^6-pyrazolo[3′,4′:4,5][1,2,8]thiadiazacycloundecino-[6,7,8-hi]indole-8-carboxylic acid (Enantiomer 1)] | 4.5e-07 M and 5.3e-07 M | 1.7e-06 M and 1.9e-06 M | 0.6 | 85 | 1.4e-07 | 1.6e-07 | 2.4e-07 | – |
| Cc1c2c(nn1C)CN(C)S(=O)(=O)CCCn1c(C(=O)O)c(CCCOc3cccc4cc(F)ccc34)c3ccc(F)c-2c31 (single isomer, unassigned; enantiomer 1) [Example 38, (−)-4-fluoro-7-{3-[(6-fluoronaphthalen-1-yl)oxy]propyl}-2,3,14-trimethyl-13,13-dioxo-10,11,12,13,14,15-hexahydro-2H-13lambda^6-pyrazolo[3′,4′:4,5][1,2,8]thiadiazacycloundecino-[6,7,8-hi]indole-8-carboxylic acid (Enantiomer 1)] | 2.9e-05 M | 2.7e-05 M | 23 | 20000 | 7.8e-06 | 1.7e-05 | 2.1e-05 | – |
| Cc1c2c(nn1C)CN(C1CC1)S(=O)(=O)CCCn1c(C(=O)O)c(CCCOc3cccc4cc(F)ccc34)c3ccc(Cl)c-2c31 (single isomer, unassigned; enantiomer 1) [Example 42, (−)-4-chloro-14-cyclopropyl-7-{3-[(6-fluoro-1-naphthyl)oxy]propyl}-2,3-dimethyl-11,12,14,15-tetrahydro-2H,10H-pyrazolo[3′,4′:4,5][1,2,8]thiadiazacycloundecino[6,7,8-hi]indole-8-carboxylic acid 13,13-dioxide N-diethylamine salt (Enantiomer 1)] | 2.6e-07 M and 4.7e-07 M | 5.9e-06 M and 3.8e-06 M | 0.34 | 190 | 2.7e-07 | 3e-07 | 3.5e-07 | – |
| Cc1c2c(nn1C)C(CCN1CCOCC1)N(C)S(=O)(=O)CCCn1c(C(=O)O)c(CCCOc3cccc4ccccc34)c3cccc-2c31 (single isomer, unassigned; enantiomer 1) [Example 45, 2,3,14-trimethyl-15-[2-(morpholin-4-yl)ethyl]-7-{3-[(naphthalen-1-yl)oxy]propyl}-13,13-dioxo-10,11,12,13,14,15-hexahydro-2H-13lambda^6-pyrazolo[3′,4′:4,5][1,2,8]thiadiazacycloundecino[6,7,8-hi]indole-8-carboxylic acid N-ethylethanamine Salt (Enantiomer 1)] | 1.5e-05 M | > 3.3e-05 M | 33 | 27000 | 1.7e-05 | 2e-05 | 1.7e-05 | – |
| CCc1c2c(nn1C)CN(CC)S(=O)(=O)CCCn1c(C(=O)O)c(CCCOc3cccc4cc(F)ccc34)c3ccc(Cl)c-2c31 (single isomer, unassigned; enantiomer 1) [Example 57, (+)-4-chloro-3,14-diethyl-7-{3-[(6-fluoronaphthalen-1-yl)oxy]propyl}-2-methyl-13,13-dioxo-10,11,12,13,14,15-hexahydro-2H-13lambda^6-pyrazolo[3′,4′:4,5][1,2,8]thiadiazacycloundecino[6,7,8-hi]indole-8-carboxylic acid N-ethylethanamine Salt (Enantiomer 1)] | 1.6e-07 M and 1.3e-07 M | 9.1e-07 M and 1.3e-06 M | 0.48 | 120 | 5.8e-08 | 1.1e-07 | 1.4e-07 | – |
| Cc1c2c(nn1C)C(CCN1CCOCC1)N(C)S(=O)(=O)CCCn1c(C(=O)O)c(CCCOc3cccc4cc(F)ccc34)c3ccc(Cl)c-2c31 (single isomer, unassigned; enantiomer 1) [Example 66, 4-chloro-7-{3-[(6-fluoronaphthalen-1-yl)oxy]propyl}-2,3,14-trimethyl-15-[2-(morpholin-4-yl)ethyl]-13,13-dioxo-10,11,12,13,14,15-hexahydro-2H-13lambda^6-pyrazolo[3′,4′:4,5][1,2,8]thiadiazacycloundecino[6,7,8-hi]indole-8-carboxylic acid (Enantiomer 1)] | 3.7e-06 M | > 3.3e-05 M | 22 | 3500 | 4e-06 | 3.3e-06 | 8.5e-06 | – |
| CCc1c2c(nn1C)CN(C)S(=O)(=O)CCCn1c(C(=O)O)c(CCCOc3cccc4cc(F)ccc34)c3ccc(Cl)c-2c31 (single isomer, unassigned; enantiomer 2) [Example 37, (−)-4-chloro-3-ethyl-7-{3-[(6-fluoronaphthalen-1-yl)oxy]propyl}-2,14-dimethyl-13,13-dioxo-10,11,12,13,14,15-hexahydro-2H-13lambda^6-pyrazolo[3′,4′:4,5][1,2,8]thiadiazacycloundecino-[6,7,8-hi]indole-8-carboxylic acid (Enantiomer 2)] | 2.8e-05 M | 1.9e-05 M | 11 | 5000 | 2.2e-06 | 5.7e-06 | 9e-06 | – |
| Cc1c2c(nn1C)CN(C)S(=O)(=O)CCCn1c(C(=O)O)c(CCCOc3cccc4cc(F)ccc34)c3ccc(F)c-2c31 (single isomer, unassigned; enantiomer 2) [Example 39, (+)-4-fluoro-7-{3-[(6-fluoronaphthalen-1-yl)oxy]propyl}-2,3,14-trimethyl-13,13-dioxo-10,11,12,13,14,15-hexahydro-2H-13lambda^6-pyrazolo[3′,4′:4,5][1,2,8]thiadiazacycloundecino-[6,7,8-hi]indole-8-carboxylic acid (Enantiomer 2)] | 1.4e-06 M | 3.3e-06 M and 5.1e-06 M | 0.89 | 350 | 5.4e-07 | 4.5e-07 | 6.7e-07 | – |
